From patent US20240025918A1, “KRAS G12D Inhibitors” (Jacobio Pharmaceuticals Co., Ltd, priority 2020, published 2024)

Experiments:
[1] = biological target: T1, GDP-loaded HIS-KRAS(G12D, aa 1-169) (Homo sapiens, UniProt P01116, G12D); assay: SOS1 catalyzed nucleotide exchange assay (TR-FRET); format: biochemical; conditions: 4 hours at 25° C.
T1 construct: GDP-loaded HIS-KRAS(G12D, aa 1-169)
Experimental: GDP-loaded HIS-KRAS(G12D, aa 1-169) was pre-incubated with a compound in the presence of 10 nM GDPin a 384-well plate (Greiner) for 15 min, then purified SOS1 ExD(Flag tag, aa 564-1049), BODIPY™ FL GTP (Invitrogen) and MAb (monoclonal antibody) Anti 6HIS-Tb cryptate Gold (Cisbio) were added to the assay wells (Final concentration: 1.5 nM GDP-loaded HIS-KRAS(G12D), 5 nM GDP, 0.5 μM SOS1 ExD, 80 nM BODIPY™ FL GTP, 52.5 ng/mL MAb Anti 6HIS-Tb cryptate Gold) and incubated for 4 hours at 25° C. Wells containing same percent of DMSO served as vehicle control, and wells without KRAS served as low control. TR-FRET signals were read on Tecan Spark multimode microplate reader. The parameters were F486: Excitation 340 nm, Emission 486 nm, Lag time 100 μs, Integration time 200 μs; F515: Excitation 340 nm, Emission 515 nm, Lag time 100 μs, Integration time 200 μs. TR-FRET ratios for each individual wells were calculated by equation: TR-FRET ratio=(Signal F515/Signal F486)*10000. The percent of activation of compounds treated wells were normalized between vehicle control and low control (% Activation=(TR-FRET ratioCompound treated−TR-FRET ratioLow control)/(TR-FRET ratioVehicle control−TR-FRET ratioLow control)*100%). Then the data were analyzed by fitting a 4-parameter logistic model or calculating in Excel to calculate IC50 values.

[2] = biological target: T2, GppNp-loaded HIS-KRAS(G12D, aa 1-169) and cRAF RBD (Homo sapiens, UniProt P01116, G12D); assay: GTP-KRAS and cRAF interaction assay (HTRF); format: biochemical; conditions: 2 hours at 25° C.
T2 construct: GppNp-loaded HIS-KRAS(G12D, aa 1-169)
Experimental: GppNp-loaded HIS-KRAS(G12D, aa 1-169) was pre-incubated with a compound in the presence of 200 μM GTP in a 384-well plate (Greiner) for 15 min, then cRAF RBD(GST tag, aa 50-132, CreativeBioMart), MAb Anti GST-d2 (Cisbio) and MAb Anti 6HIS-Tb cryptate Gold (Cisbio) were added to the assay wells (Final concentration: 2.0 nM GppNp-loaded HIS-KRAS(G12D), 100 μM GTP, 35 nM cRAF RBD, 1 μg/mL MAb Anti GST-d2, 52.5 ng/mL MAb Anti 6HIS-Tb cryptate Gold) and incubated for 2 hours at 25° C. Wells containing same percent of DMSO served as vehicle control, and wells without KRAS served as low control. HTRF signals were read on Tecan Spark multimode microplate reader and HTRF ratios were calculated under manufacturer's instructions. The percent of activation of compounds treated wells were normalized between vehicle control and low control (% Activation=(HTRF ratioCompound treated−HTRF ratioLow control)/(HTRF ratioVehicle control−HTRF ratioLow control)*100%). Then the data were analyzed by fitting a 4-parameter logistic model or calculating in Excel to calculate IC50 values.

[3] = system: AGS cells expressing KRAS G12D; assay: Phospho-ERK1/2(THR202/TYR204) HTRF assay; format: cell-based; conditions: Homo sapiens; Phospho-ERK1/2 in AGS cells, 2 hours incubation
Experimental: AGS cells expressing KRAS G12D were cultured in F12K medium (Gibco) containing 10% fetal bovine serum (Gibco). The AGS cells in culture medium were seeded in 96-well plates at a concentration of 40,000 cells/well and then put in a 37° C./5% CO2 cell incubator to incubate overnight. The next day, culture medium was removed and the compound diluted in assay medium (F12K, 0.1% FBS) was added in each well. After 2 hours incubation in a 37° C./5% CO2 cell incubator, the assay medium in 96-well plates was removed, then 50 μL of 1× blocking reagent-supplemented lysis buffer (Cisbio) was added and the plates were incubated at 25° C. for 45 min with shaking. 10 μL of cell lysates from the 96-well plates were transferred to a 384-well plate (Greiner) containing 2.5 μL/well HTRF® pre-mixed antibodies (Cisbio 64AERPEH). Incubate 4 hours at 25° C. and then read HTRF signals on Tecan Spark multimode microplate reader. The data were analyzed using a 4-parameter logistic model to calculate IC50 values.

AsPC-1 = assay: Cell growth inhibition assay, AsPC-1 (CellTiter-Glo); format: cell-based; conditions: Homo sapiens, ASPC1, 144 h; AsPC-1 cell viability, 6 days incubation
Experimental: AsPC-1 cultured in RPMI-1640 medium (Gibco) containing 10% fetal bovine serum (Gibco). Cells in culture medium were plated in 96-well plates at a concentration of 1000 cells/well (100 μL/well) and allowed to attach overnight.
(§1) The next day, compounds were diluted in culture medium and added to the plates. After 6 days incubation in a 37° C./5% CO2 cell incubator, the cell viability was detected by CellTiter-Glo® Luminescent Cell Viability Assay kit (Promega). Luminescent signals were read on Tecan Spark multimode microplate reader and analyzed using a 4-parameter logistic model to calculate IC50 values.

AGS = assay: Cell growth inhibition assay, AGS (CellTiter-Glo); format: cell-based; conditions: Homo sapiens, 144 h; AGS cell viability, 6 days incubation
Experimental: AGS cultured in F12K medium (Gibco) containing 10% fetal bovine serum (Gibco). Cells in culture medium were plated in 96-well plates at a concentration of 500 cells/well (100 μL/well) and allowed to attach overnight.
as §1

T2 sequence (P01116 1-169 isoform P01116-2 G12D): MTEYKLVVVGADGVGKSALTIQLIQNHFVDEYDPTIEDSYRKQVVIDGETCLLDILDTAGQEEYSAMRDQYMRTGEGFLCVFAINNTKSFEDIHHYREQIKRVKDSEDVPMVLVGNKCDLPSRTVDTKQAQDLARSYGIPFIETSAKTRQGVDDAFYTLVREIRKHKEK
T1 sequence (P01116 1-169 isoform P01116-2 G12D): as above

| Structure (SMILES) | IC50 [1] | IC50 [2] | IC50 [3] | IC50 (AsPC-1) | IC50 (AGS) |
| --- | --- | --- | --- | --- | --- |
| C#Cc1cccc2cc(O)cc(-c3c(F)cc4c(N5CC6CCC(C5)N6)nc(OCC5(CN6CCCOCC6)CC5)nc4c3F)c12 [Compound 37] | 4.36 nM | 50.1 nM | 10.9 nM | 89.9 nM | 6.48 nM |
| C#Cc1cccc2cc(O)cc(-c3c(F)cc4c(N5CC6CCC(C5)N6)nc(OCC5(CN6CCC7(CCOC7)C6)CC5)nc4c3F)c12 (centres unmarked) [Compound 45] | 26.4 nM | 408 nM | 125 nM | 653 nM | 74.2 nM |
| C#Cc1cccc2cc(O)cc(-c3c(F)cc4c(N5CC6CCC(C5)N6)nc(OCC5(CN6CC7(CCOC7)C6)CC5)nc4c3F)c12 [Compound 46] | 5.92 nM | 242 nM | 23.1 nM | 488 nM | 55.4 nM |
| C#Cc1cccc2cc(O)cc(-c3c(F)cc4c(N5CC6CCC(C5)N6)nc(OCC5(CN6CCC7(CCCO7)C6)CC5)nc4c3F)c12 (centres unmarked) [Compound 47] | 2.58 nM | 92.1 nM | 31.4 nM | 227 nM | 29 nM |
| C#Cc1cccc2cc(O)cc(-c3c(F)cc4c(N5CC6CCC(C5)N6)nc(OCC5(CN6CC7(CCCCO7)C6)CC5)nc4c3F)c12 [Compound 48] | 1.49 nM | 118 nM | 38.6 nM | 315 nM | 36.4 nM |
| C#Cc1cccc2cc(O)cc(-c3c(F)cc4c(N5CC6CCC(C5)N6)nc(OCC5(CN6C[C@@H]7OCCO[C@@H]7C6)CC5)nc4c3F)c12 [Compound 50] | 1.39 nM | 42.5 nM | 9.39 nM | 70 nM | 3.49 nM |
| C#Cc1cccc2cc(O)cc(-c3c(F)cc4c(N5CC6CCC(C5)N6)nc(OCC5(CN6C7CCC6CC(=O)C7)CC5)nc4c3F)c12 [Compound 51] | 1.26 nM | 59.4 nM | 12.1 nM | 66 nM | 1.25 nM |
| C#Cc1cccc2cc(O)cc(-c3c(F)cc4c(N5CC6CCC(C5)N6)nc(OCC5(CN6CCc7sccc7C6)CC5)nc4c3F)c12 [Compound 52] | 4.26 nM | 286 nM | 271 nM | 93 nM | 32.4 nM |
| C#Cc1cccc2cc(O)cc(-c3c(F)cc4c(N5CC6CCC(C5)N6)nc(OCC5(CN6CCC7(CCOCC7)C6)CC5)nc4c3F)c12 [Compound 55] | 1.37 nM | 23.1 nM | 5.39 nM | 77 nM | 7.71 nM |
| C#Cc1cccc2cc(O)cc(-c3c(F)cc4c(N5CC6CCC(C5)N6)nc(OCC5(CN6CC7(CCO7)C6)CC5)nc4c3F)c12 [Compound 56] | 2.05 nM | 53.2 nM | 7.66 nM | 182 nM | 14.9 nM |
